Entries after “also recorded” stand apart in the source; their conditions may differ.
What was measured:
BMDCs from C57BL/6 mice = test: FACS of CD11b+ Gr-1+ cells in mouse BMDCs; format: cell-based; conditions: GM-CSF with or without GRO-γ, six days
Procedure: (§1) The phenotypic profiles of monocytes, iMDDCs and mMDDCs were obtained by staining 1×10^5 cells with fluorochrome-labeled antibodies (Abs) against CD11c, HLA-DR, CD80, CD86, CD83, CD40, and DC-SIGN. The fluorescence intensity was measured by flow cytometry. The corresponding isotype-matched controls used were FITC-IgG1, FITC-IgG2a, PE-IgG2a, and PE-IgG2b (BD Biosciences, San Jose, Calif., USA). Surface-labeled cells were analyzed using a FACS Calibur-flow cytometer (BD Biosciences). For cell purification, sorting was performed on a FACS Aria cell sorter (BD Biosciences). The purity of individual sorted cell populations was greater than 95%.
(§2) Murine bone marrow-derived dendritic cells (BM-DCs) were harvested and differentiated into dentritic cells as previously described (Song et al., 2011). Briefly, bone marrow cells from C57BL/6 mice were cultured at a density of 2×10^5 cells/mL in petri dishes containing 10 mL of complete RPMI-1640 medium with 200 U/mL (20 ng/mL) recombinant mouse GM-CSF in the presence or absence of recombinant mouse GRO chemokine. On day 3, half of the volume of the culture medium was replaced by complete RPMI medium containing 20 ng/mL of […] combined with or without GRO. On day 6, BMDCs from the different treatment groups were collected from each dish, washed and characterized.

immature MDDCs (iDCs) = test: Endocytosis test (FITC-dextran uptake); format: cell-based, human
Procedure: The endocytic activity of iMDDCs or mMDDCs was measured by analyzing the cellular uptake of FITC-dextran (40 kD, FD40S, Sigma-Aldrich) as quantified by flow cytomerty. Cells (5×10^4 cells/sample/96 well V bottom plate) were incubated in RPMI-1640 medium with 1 mg/mL FITC-dextran for 30 min at 37° C. After incubation, cells were washed twice with staining buffer to remove free reagent then fixed with 1% paraformaldehyde. The signal from FITC-dextran endocytosed by cells was analyzed by FACS. Data analysis was performed using the FlowJo version 5.7.2 software. The signal obtained for cells incubated with medium in the absence of FITC-dextran was used as negative control.

[1] = tested on: mature MDDCs co-cultured with allogeneic T cells; test: MLR assay (allogeneic T-cell proliferation, [3H]-thymidine); format: cell-based, human
Procedure: Monocyte-derived cells (3×10^4) at different stages of differentiation were irradiated at 30 Gy using an X-ray biological irradiator (X-ray R-2000, Rad Source Technologies, Inc, Alpharetta, Ga., USA) and then cultured with purified allogenic CD3 T cells (1:10) in complete culture medium in 96-well U-bottom plate. X-ray irradiated myeloid cells and allogenic T lymphocytes were placed in a humidified CO2 incubator at 37° C. After 96 hours, [^3H]-thymidine (1 μCi) was added to each well containing either monocytes-, iMDDCs-, or mMDDCs mixed with T cells, and further incubated for 16 hours. Cells were then harvested using a Filtermate 96-well harvester and radioactivity (cpm) measured as an index of cell proliferation in a Packard microplate scintillation and luminescence counter (Perkin-Elmer-Packard; Waltham, Mass., USA).

IDO in iDCs = test: Intracellular IDO staining, confocal microscopy; format: cell-based, human; conditions: iDCs differentiated in presence of GRO-γ
Procedure: MDDCs were generated in the presence or absence of GRO-γ and then analyzed for the intracellular expression of the IDO protein. Cells (5×10^4) were plated onto poly-L-lysine-coated glass slides for 15 min, and washed twice quickly with 0.5 mL PBS. Cells were fixed by adding 0.5 mL of 1% paraformaldehyde (Sigma-Aldrich) for 10 minutes, and then subsequently washed with PBS three times and incubated in 0.5 mL of 1% BSA/PBS for 30 min at room temperature. Cells were washed with 0.1% (v/v) NP-40/PBS three times, and then incubated with 0.5% BSA/PBS containing 1:50 diluted mouse anti-human IDO antibody (Chemicon Inc, Temecula, Calif., USA) at room temperature for 1 h. Cells were further washed with 0.1% (v/v) NP-40/PBS to remove unbound antibody, and then incubated with 1:150 diluted anti-mouse IgG conjugated with DyLight 488 (Sigma-Aldrich) for 1 h at room temperature. After three final washes with 0.1% (v/v) NP-40/PBS, the slides were mounted with 10% Glycerol/PBS and sealed with nail polish. Fluorescent images were captured using a Leica TCS SP5 camera (Leica Camera AG, Solms, Germany).

MDDCs [2] = test: Real-time PCR of selected genes in MDDCs from 7-day cultures; format: cell-based, human; conditions: MDDC differentiation in presence of GRO-γ
Procedure: Total RNA was extracted with the Trizol reagent and converted to cDNA using a ReverTra Ace set (Toyobo Life Science, Osaka, Japan), according to manufacturer's instructions. Real-time PCR analysis was performed using an ABI Prism 7900 system (Applied Biosystems, Foster City, Calif., USA). Samples were treated according to the following program: 5° C. for 2 min, 94° C. for 10 min, and 40 cycles of 95° C. for 15 s and 60° C. for 1 min. Analyses were performed in triplicate. For each sample, the cycle threshold (Ct) values were determined. Results were normalized to the GAPDH gene on the same plate. The levels of mRNA expression in different cell groups were calculated using the 2ΔCt method. Intron-spanning primers specific for each gene were designed. Their sequences are as follows: human GAPDH, […] (forward primer, F, SEQ ID NO:4), […] (reverse primer, R, SEQ ID NO:5); human IL-10, […] (F, SEQ ID NO:6), […] (R, SEQ ID NO:7); human IDO, […] (F, SEQ ID NO:8), TGACCTTTGCCCCACACAT (R, SEQ ID NO:9); human matrix-metallopeptidase-9 (MMP-9), […] (F, SEQ ID NO:10), […] (R, SEQ ID NO:11); human IL-4, […] (F, SEQ ID NO:12), GCCTGTGGAACTGCTGTGC (R, SQ ID NO:13); human IL-12p40, CGGTCATCTGCCGCAAA (F, SEQ ID NO:14), […] (R, SEQ ID NO:15); human TNF-α, […] (F, SEQ ID NO:16), CAGGCAGAAGAGCGTGGTG (R, SEQ ID NO:17); human IFN-γ, […] (F, SEQ ID NO:18), […] (R, SEQ ID NO:19); human Cox2, […] (F, SEQ ID NO:20), […] […]

CD11b+ Gr-1+ BMDCs = test: ARG-1 and iNOS expression in mouse BMDCs; format: cell-based
Procedure: Total RNA was extracted with the Trizol reagent and converted to cDNA using a ReverTra Ace set (Toyobo Life Science, Osaka, Japan), according to manufacturer's instructions. Real-time PCR analysis was performed using an ABI Prism 7900 system (Applied Biosystems, Foster City, Calif., USA). Samples were treated according to the following program: […], 94° C. for 10 min, and 40 cycles of 95° C. for 15 s and 60° C. for 1 min. Analyses were performed in triplicate. For each sample, the cycle threshold (Ct) values were determined. Results were normalized to the GAPDH gene on the same plate. The levels of mRNA expression in different cell groups were calculated using the 2ΔCt method. Intron-spanning primers specific for each gene were designed. Their sequences are as follows: human GAPDH, […] (forward primer, F, SEQ ID NO:4), […] (reverse primer, R, SEQ ID NO:5); human IL-10, […] (F, SEQ ID NO:6), […] (R, SEQ ID NO:7); human IDO, […] (F, SEQ ID NO:8), TGACCTTTGCCCCACACAT (R, SEQ ID NO:9); human matrix-metallopeptidase-9 (MMP-9), […] (F, SEQ ID NO:10), […] (R, SEQ ID NO:11); human IL-4, […] (F, SEQ ID NO:12), GCCTGTGGAACTGCTGTGC (R, SQ ID NO:13); human IL-12p40, CGGTCATCTGCCGCAAA (F, SEQ ID NO:14), […] (R, SEQ ID NO:15); human TNF-α, […] (F, SEQ ID NO:16), CAGGCAGAAGAGCGTGGTG (R, SEQ ID NO:17); human IFN-γ, […] (F, SEQ ID NO:18), […] (R, SEQ ID NO:19); human Cox2, […] (F, SEQ ID NO:20), […] (R, SEQ ID NO:21); human PD-L1, […] (F, SEQ ID NO:22), […] (R, SEQ ID NO:23); human PD-L2, […] (F, SEQ ID NO:24), […] (R, SEQ ID NO:25); human TGF-β, […] (F, SEQ ID NO:26), […] (R, SEQ ID NO:27); human IL-6, […] (F, SEQ ID NO:28), […] (R, SEQ ID NO:29); IL-1β, […] (F, SEQ ID NO:30), […] (R, SEQ ID NO:31); mouse GAPDH, GATGCAGGGATGATGTTC (F, SEQ ID NO:32), TGCACCACCAACTGCTTAG (R, SEQ ID NO:33); mouse Arginase 1(Arg-1), […] (F, SEQ ID NO:34), […] (R, SEQ ID NO:35); mouse iNOS, […] (F, SEQ ID NO:36), […] (R, SEQ ID NO:37); mouse IFN-γ, […] (F, SEQ ID NO:38), […] (R, SEQ ID NO:39).
as §2

MDDCs [3] = test: ELISA of cytokines in MDDC supernatants; format: cell-based, human; conditions: MDDCs differentiated with GRO-γ, recultured 3 days
Procedure: Supernatants from MDDCs alone (5×10^4), CD3^+ purified T-cells alone (isolated by the human CD3^+ Cell Isolation Kit, MACS, Miltenyi Biotec, Inc., 5×10^5), or MDDCs (5×10^4) co-cultured with CD3^+ purified T-cells (5×10^5) were harvested, and the concentrations of IL-4, IL-10, IL-12, INF-γ, IL-6 and TNF-α in supernatants were determined in triplicates using commercial ELISA kits according to the manufacturer's protocols (R&D systems).

[4] = tested on: human monocyte-derived dendritic cells (MDDCs); test: Surface marker phenotype of human MDDCs by flow cytometry; format: cell-based; conditions: for effect on CD40 expression: human iMDDCs supplemented with GRO isoform, day 7
Procedure: Human monocyte-derived dendritic cells (MDDCs) were generated from leukaphereses obtained from healthy donors. Peripheral blood mononuclear cells (PBMCs) were purified by Fycoll-Hypaque Plus (GE Health-Pharmacia, Uppsala, Sweden) density centrifugation. CD14^+ monocytes were isolated using the human CD14^+ Cell Isolation Kit (MACS, Miltenyi Biotec, Inc., Auburn, Calif., USA) according to the manufacturer's instructions. The purified CD14^+ cells (1×10^6/mL) were subsequently cultured in 2 mL MSC-CM or α-MEM completed medium with 10% pooled AB-type human serum supplemented with rhGM-CSF (80 ng/mL) and rhIL-4 (80 ng/mL) (Peprotech, NJ) in the presence or absence of GRO chemokines to induce their differentiation into DCs. An additional 1 mL of medium containing the same concentrations of rhGM-CSF and rhIL-4 with or without GRO chemokines was added to each group of cells on day 3. Half-volume of culture medium was replaced with an equal volume of fresh medium containing the same concentrations of rhGM-CSF and rhIL-4 on day 5. Maturation of MDDCs (mature DCs, mMDDCs) was induced by adding 1 μg/mL LPS to the culture medium of iMDDCs on day 5 and cells were further cultured for another 48 hours. Phenotypic changes in immature DCs (iMDDCs) and mature DCs (mMDDCs) were monitored by FACS analysis on day 7. The study protocols were approved by the Institutional Review Board of Human Subject Research Ethics Committee of Academia Sinica (AS-IRB01-10113) and the Institutional Review Board of Research Ethics Committee of National Health Research Institutes (EC 1001101).
as §1

Compound	percentage (frequency) of double positive CD11b+ Gr-1+ cells in BMDCs (BMDCs from C57BL/6 mice)	endocytic activity of iDCs (immature MDDCs (iDCs); GRO-γ 250 ng/mL)	ability of mDCs to stimulate T-cell proliferation in mixed lymphocyte reaction ([1]; GRO-γ 250 ng/mL)	intracellular expression of IDO (IDO in iDCs)	expression levels of IL-10, IL-4, TGF-β, IL-1β, IL-6, COX2, PD-L1, PD-L2, MMP-9 and IDO genes (MDDCs [2])	mRNA levels of TNF-α, IFN-γ and IL-12 (MDDCs [2])	protein expression and enzymatic activity of Arg-1 and iNOS (CD11b+ Gr-1+ BMDCs; GRO-γ treated BMDCs)	mRNA levels of ARG-1 and iNOS (CD11b+ Gr-1+ BMDCs; GRO-γ-treated BMDCs vs BMDCs)	expression of the Arg-1 gene, the iNOS gene, and the MDSC-related genes (CD11b+ Gr-1+ BMDCs; presence of GRO-γ during BMDC differentiation)	levels of IFN-γ and IL-12 in supernatants (MDDCs [3])	levels of IL-4 and IL-10 in supernatants (MDDCs [3])	effect on CD40 expression [4]	surface expression of CD40, CD83, CD80, CD11c, CD86 and DC-SIGN ([4]; iDCs, recombinant GRO-γ 250 ng/mL vs absence)	DC-SIGN expression ([4]; mDCs, addition of GRO-γ)	blocking of GRO-γ effect on endocytic activity of iDCs (immature MDDCs (iDCs); SB225002 250 nM plus GRO-γ)	blocking of GRO-γ effect on ability of mDCs to stimulate T-cell proliferation ([1]; SB225002 250 nM plus GRO-γ)	reversal of induction of ARG-1 and iNOS genes (CD11b+ Gr-1+ BMDCs; GM-CSF/GRO-γ/SB225002 treated BMDCs)	reversal of suppressive effect of GRO-γ on selected surface markers ([4]; iDCs and mDCs, SB225002 250 nM pretreatment 30 min plus GRO-γ)	DC-SIGN expression ([4]; iDCs and mDCs, addition of SB225002 with GRO-γ)
GRO-γ: recombinant GRO chemokine CXCL3 (SEQ ID NO:3); human from PeproTech, mouse from R&D Systems	did not depend on the presence of GRO-γ; also recorded: similar	significantly down-regulated	significantly down-regulated	increase in intracellular expression	significantly up-regulated	significantly down-regulated	increased	elevated	up-regulated	reduced levels	elevated levels	significant inhibitory effects	significantly reduced	not affected					
GRO-α: recombinant human GRO chemokine CXCL1 (SEQ ID NO:1), PeproTech												significant inhibitory effects							
O=C(Nc1ccc([N+](=O)[O-])cc1O)Nc1ccccc1Br [SB225002, N-(2-Hydroxy-4-nitrophenyl)-N′-(2-bromophenyl) urea, reference compound]															blocked	blocked	reversed the induction	significantly reversed	not affected

Source: patent US9415069B2, “Immunosuppressive cells and methods of making and using thereof” (National Health Research Institutes, priority 2012, dated 2016)
